In patent US20160115225A1, “Methods of Reducing Methylglyoxal (MGO) Modification of Recombinant Proteins in Cell Culture” (AbbVie Inc., priority 2014, published 2016):

Tests used:
[1] = test system: adalimumab producing cell line 2; assay: Glucose consumption of the culture, cell line 2; type: cell-based; settings: Example 4
Experimental: For the bioreactor (3 L Applikon) experiments (Examples 1, 2 and 3), 3 L, bioreactors (1.5 L working volume) were initiated at 35° C. (cell line 1) and 36° C. (cell line 2), 30% DO, 200 rpm, pH of 7.1. In some of the conditions, pH was ramped down to 6.8 in three days and kept at pH 6.8 thereafter. The inclusion of pH ramp for a particular condition is indicated by the final pH in the experimental design. If the final pH is 7.1, then it indicates no pH ramp was performed, whereas if the final pH is 6.8, a pH ramp was performed on day 3 from pH 7.1 to pH 6.8. In some of the conditions, a temperature shift was performed. When temperature shift was performed, the temperature was lowered to 33° C. Again, the conditions where such a temperature shift was performed can be identified from the final temperature in the experimental design. Cultures were run in extended batch mode with the addition of a desired amount of 40% glucose stock solution was fed based on glucose measurements.
The objective of this experiment was to further evaluate the control of MGO synthesis/MGO protein modification through reduced glucose consumption in a different cell line, Cell line 2. […] As described in Example 3, extracellular MGO quantification was performed for day 7, 8 and 9 for the samples below and percentage of acidic species were quantified using WCX-10 analysis post protein A of cell culture harvests. […]

[2] = test system: adalimumab producing cell line 2; assay: WCX-10 quantification of acidic species of adalimumab, bioreactor culture, cell line 2; type: cell-based; settings: Example 4; 0.15 g/l 2DDG; control 29.8%
Experimental: Two adalimumab producing cell lines were employed in the studies covered here. Upon thaw, cells were cultured in their respective growth media in a combination of vented non-baffled shake flasks (Corning) on a shaker platform at 110 RPM (cell line 1) and 140 RPM (cell line 2) and 10 L or 20 L wave bags (GE). Cultures were propagated in a 35° C., 5% CO2 incubator for cell line 1 and 36° C., 5% CO2 incubator for cell line 2 to obtain the required number of cells to be able to initiate production stage cultures.
For the bioreactor (3 L Applikon) experiments (Examples 1, 2 and 3), 3 L, bioreactors (1.5 L working volume) were initiated at 35° C. (cell line 1) and 36° C. (cell line 2), 30% DO, 200 rpm, pH of 7.1. […]
This method is employed towards the quantification of the acidic species and other charge variants present in cell culture harvest samples. […]
Quantitation is based on the relative area percent of detected peaks. […]
The objective of this experiment was to further evaluate the control of MGO synthesis/MGO protein modification through reduced glucose consumption in a different cell line, Cell line 2. […] As described in Example 3, extracellular MGO quantification was performed for day 7, 8 and 9 for the samples below and percentage of acidic species were quantified using WCX-10 analysis post protein A of cell culture harvests.

In the case of `O=CC[C@@H](O)[C@H](O)[C@H](O)CO` [Test 2DDG, 2-Deoxy-D-Glucose], the glucose consumption rate ([1]; 0.05 g/l 2DDG, compared to control) is reported as “not significantly lower”, the glucose consumption ([1]; 0.15 g/l 2DDG) is reported as “reduction” and the “percentage of acidic species” value [2] is reported as 27.2%.
